Results: patent publication US10150729B2, “Tranilast compositions and cocrystals” (NUFORMIX LIMITED, priority 2012, dated 2018)
Read-outs that look alike come from different tables or passages of the source.

Experiments:
[1] = Solid-state photostability study (UV irradiation, HPLC); conditions: UV light; for photostability in the solid-state: compared to pure crystalline tranilast
Experimental: A study was, therefore, carried out to determine the solid-state photostability of the 1:1 tranilast nicotinamide cocrystal, the 1:1 tranilast saccharin cocrystal, the 1:1 tranilast gentisic acid cocrystal, the 1:1 salicylic acid cocrystal, the 1:1 tranilast urea cocrystal, the 1:1 tranilast 4-aminobenzoic acid cocrystal and the 1:1 tranilast 2,4-dihydroxybenzoic acid cocrystal and to compare this with the solid state photostability of pure crystalline tranilast. A 1-2 mg sample of crystalline tranilast and the seven cocrystal forms were each weighed and spread over the bottom surface of a clear glass vial. The vials were placed into a Vindon Scientific Photostability cabinet and irradiated with UV light (average Klux=18.2 (18.2 Lux/hour), average UV values=2.55 watts/minute, temperature=31.0-32.0° C.). The percentage of tranilast remaining in each sample, that had not undergone degradation into the cis-isomer, dimer or any other degradation product, was determined at 3, 24 and 48 hours using HPLC.

[2] = Solution photostability study (UV irradiation, HPLC); conditions: dissolved in DMSO/MeOH/water; UV light; 24 hrs
Experimental: (§1) This study explored the photostability of the 1:1 tranilast nicotinamide cocrystal, the 1:1 tranilast saccharin cocrystal, the 1:1 tranilast gentisic acid cocrystal, the 1:1 salicylic acid cocrystal, the 1:1 tranilast urea cocrystal, the 1:1 tranilast 4-aminobenzoic acid cocrystal and the 1:1 tranilast 2,4-dihydroxybenzoic acid cocrystal once dissolved in solution and to compare these with the solution photostability of pure tranilast. A 1 mg sample of crystalline tranilast and the seven cocrystal forms were each weighed into a clear glass vial. Each sample was dissolved in a mixture of DMSO (200 μl), MeOH (600 μl) and water (600 μl). The vials were placed into a Vindon Scientific Photostability cabinet and irradiated with UV light (average Klux=18.2 (18.2 Lux/hour), average UV values=2.55 watts/minute, temperature=31.0-32.0° C.). The percentage of tranilast remaining in each sample, that had not undergone degradation into the cis-isomer, dimer or any other degradation product, was determined after 24 hours using HPLC.

[3] = Dissolution study in purified water containing 2% SDS; format: physicochemical
Experimental: For poorly soluble drugs, such as tranilast, the rate of dissolution of the drug form used can have an impact on the overall absorption and thus bioavailability of the drug, especially for example, in the case of oral solid dosage or inhalation delivery methods. […] The dissolution experiment was carried out for tranilast and each of the cocrystal forms at a concentration equivalent to 0.4 mg tranilast/ml in purified water containing 2% SDS. This study compared the dissolution rates of the cocrystals versus pure crystalline tranilast, because of the extremely low solubility of crystalline tranilast in aqueous media, the surfactant sodium dodecyl sulfate (SDS) was added to the dissolution media to allow easier analytical detection. Samples were collected and analysed at 1, 5, 10 and 30 minute time points. The samples were analysed by HPLC using the method described in Table 10. FIG. 32 illustrates the dissolution profiles from a single dataset for each of the tranilast cocrystals alongside crystalline tranilast over the 30 minute time period in the aqueous 2% SDS solution. The dissolution data is corrected within error limits of the analytical method described (estimated at ±10%). […] Most of the cocrystals reach almost their maximum dissolution within the first minute.

[4] = Physical stability study of the cocrystal under accelerated conditions (40° C./75% RH), examined by XRPD; format: physicochemical
Experimental: X-Ray Powder Diffraction patterns at the required time points were collected on a PANalytical diffractometer using Cu Kα radiation (45 kV, 40 mA), θ-θ goniometer, focusing mirror, divergence slit (½″), soller slits at both incident and divergent beam (4 mm) and a PIXcel detector. The software used for data collection was X'Pert Data Collector, version 2.2f and the data was presented using X'Pert Data Viewer, version 1.2d. Instrument verification was performed using a silicon and benzoic acid standard, performed with the same batch program as listed below for sample analysis. Samples were run under ambient conditions and were analysed by transmission foil XRPD, using the powder as received. Approximately 2-5 mg of the sample was mounted on a 96 position sample plate supported on a polyimide (Kapton, 12.7 μm thickness) film. Plate height (Z) was set to 9 mm. Data was collected in the range 3-40° 2θ with a continuous scan (speed of 0.2° 2θ/s).
A stability study was carried out to examine the physical stability of the 1:1 tranilast nicotinamide cocrystal with respect to dissociation into its starting components over time under accelerated conditions. Approximately 1-2 mg of the 1:1 tranilast nicotinamide cocrystal was placed in seven clear glass vials. The glass vials were loosely sealed with plastic screw caps so as to provide a barrier to solid transfer but to still allow moisture equilibration with the outer environment. The vial head space above the sample was estimated to be >95% of the total vial volume. All seven samples were then placed on a tray and stored within a stability cabinet set at 40° C./75% RH. At every time point examined the XRPD pattern obtained was characteristic of the 1:1 tranilast nicotinamide cocrystal with no evidence of either of the starting materials, or any new peaks to indicate conversion to a different crystalline form. FIG. 7 illustrates the XRPD patterns obtained at the time points 0, three months and six months. FIG. 7 is an overlay of the XRPD patterns of the 1:1 tranilast nicotinamide cocrystal at those time points during a 6 month accelerated stability study at 40° C./75% RH.

[5] = buffer, 24 h
Experimental: as §1

Row | SMILES | percentage of tranilast remaining ([1]; 3 hrs) | percentage of tranilast remaining ([1]; 24 hrs) | percentage of tranilast remaining ([1]; 48 hrs) | photostability in the solid-state [1] | percentage of tranilast remaining [2] | other results
1 | COc1ccc(/C=C/C(=O)Nc2ccccc2C(=O)O)cc1OC.O=C1NS(=O)(=O)c2ccccc21 [1:1 Tranilast Saccharin Cocrystal] | 99.8% | 99.6% | 99.1% | comparable photostability | 71.0% | –
2 | COc1ccc(/C=C/C(=O)Nc2ccccc2C(=O)O)cc1OC.O=C(O)c1ccccc1O [1:1 Tranilast Salicyclic Acid Cocrystal] | 99.8% | 99.6% | 98.7% | comparable photostability | 77.5% | –
3 | COc1ccc(/C=C/C(=O)Nc2ccccc2C(=O)O)cc1OC.Nc1ccc(C(=O)O)cc1 | 99.8% | 98.2% | 99.7% | comparable photostability | 76.2% | –
4 | COc1ccc(/C=C/C(=O)Nc2ccccc2C(=O)O)cc1OC [Crystalline Tranilast, 2-[[3-(3,4-dimethoxyphenyl)-1-oxo-2-propenyl]amino] benzoic acid, reference compound] | 98.9% | 99.8% | 99.7% | – | 66.2% | dissolved ([3]; after 1 minute, 0.4 mg tranilast/ml): about 5%
5 | COc1ccc(/C=C/C(=O)Nc2ccccc2C(=O)O)cc1OC.NC(=O)c1cccnc1 [1:1 Tranilast Nicotinamide Cocrystal] | 99.3% | 99.9% | 99.9% | comparable photostability | 80.2% | XRPD Characterization ([4]; 1 month): cocrystal; XRPD Characterization ([4]; 1 week): cocrystal; XRPD Characterization ([4]; 2 months): cocrystal; XRPD Characterization ([4]; 2 week): cocrystal; XRPD Characterization ([4]; 3 months): cocrystal; XRPD Characterization ([4]; 3 week): cocrystal; XRPD Characterization ([4]; 6 months): cocrystal; physical stability with respect to dissociation or conversion to another crystalline form ([4]; six month period): stable; XRPD Characterization ([4]; time point 0): cocrystal; dissolution reached ([3]; within 1 minute): almost complete dissolution
6 | COc1ccc(/C=C/C(=O)Nc2ccccc2C(=O)O)cc1OC.O=C(O)c1cc(O)ccc1O [1:1 Tranilast Gentisic Acid Cocrystal] | – | – | – | – | – | percentage of tranilast remaining [5]: 76.3%; percentage of tranilast remaining (3 h): 99.6%; percentage of tranilast remaining (24 h): 99.8%; percentage of tranilast remaining (48 h): 99.9%
7 | COc1ccc(/C=C/C(=O)Nc2ccccc2C(=O)O)cc1OC.NC(N)=O [1:1 Tranilast Urea Cocrystal] | 99.8% | 99.6% | 99.9% | comparable photostability | 76.4% | –
